Results on twelve compounds are retold here after patent US10160762B2, “6-alkyl dihydropyrazolopyrimidinone compounds as PDE2 inhibitors” (Merck Sharp & Dohme Corp., priority 2015, dated 2018).

For this experiment, the target named is T1, human PDE2A1 (Homo sapiens, UniProt O00408).
T1 construct: GST; purchased BPS Bioscience (San Diego, Calif.) 60020; host or cells: insect cells
In words: IMAP FP PDE assay, human PDE2A1. The class given is biochemical. As to conditions: Lab B; read-out: Human PDE2 Ki (nM) Lab B. On the procedure:
Selectivity for PDE2, as compared to other PDE families, was assessed using the IMAP® technology. Human PDE10A2 enzyme was prepared from cytosolic fractions of transiently transfected HEK cells. All other PDE's were GST Tag human enzyme expressed in insect cells and were obtained from BPS Bioscience (San Diego, Calif.): PDE1A (Cat#60010), human PDE2A1 (Cat#60020), PDE3A (Cat#60030), PDE4A1A (Cat#60040), PDE5A1 (Cat#60050), PDE6C (Cat#60060), PDE7A (Cat#60070), PDE8A1 (Cat#60080), PDE9A2 (Cat#60090), PDE11A4 (Cat#60110).
Assays for PDE 1 through 11 were performed in parallel at room temperature in 384-well microtiter plates with an incubation volume of 20.2 μL. Solutions of test compounds were prepared in DMSO and serially diluted with DMSO to yield 30 μL of each of ten solutions differing by 3-fold in concentration, at 32 serial dilutions per plate. […] A Labcyte POD 810 (Labcyte, Sunnyvale, Calif.) was used to dispense 200 nL from each well of the titration plate to make eleven copies of the assay plate for each titration, one copy for each PDE enzyme. A solution of each enzyme (dilution from aliquots, sufficient to produce 20% substrate conversion) and a separate solution of FAM-labeled cAMP or FAM-labeled cGMP from Molecular Devices (Sunnyvale, Calif., product # R7506 or cGMP#R7508), at a final concentration of 50 nM were made in the assay buffer (10 mM Tris HCl, pH 7.2, 10 mM MgCl2, 0.05% NaN3 0.01% Tween-20, and 1 mM DTT). Note that the substrate for PDE2 is 50 nM FAM cAMP containing 1000 nM of cGMP. The enzyme and the substrate were then added to the assay plates in two consecutive additions of 10 μL and then shaken to mix. The reaction was allowed to proceed at room temperature for 60 minutes. A binding solution was then made from the kit components, comprised of 80% Solution A, 20% Solution B and binding reagent at a volume of 1/600 the total binding solution. The enzymatic reaction was stopped by addition of 60 μL of the binding solution to each well of the assay plate. The plates were sealed and shaken for 10 seconds. The plates were incubated at room temperature for one hour, then the parallel and perpendicular fluorescence was measured using a Tecan Genios Pro plate reader (Tecan, Switzerland). The apparent inhibition constants for the compounds against all 11 PDE's was determined from the parallel and perpendicular fluorescent readings as described for PDE10 FP assay using the following apparent KM values for each enzyme and substrate combination: PDE1A (FAM cGMP) 70 nM, human PDE2A1 (FAM cAMP) 10,000 nM, PDE3A (FAM cAMP) 50 nM, PDE4A1A (FAM cAMP) 1500 nM, PDE5A1 (FAM cGMP) 400 nM, PDE6C (FAM cGMP) 700 nM, PDE7A (FAM cAMP) 150 nM, PDE8A1 (FAM cAMP) 50 nM, PDE9A2 (FAM cGMP) 60 nM, PDE10A2 (FAM cAMP) 150 nM, PDE11A4 (FAM cAMP) 1000 nM. The intrinsic PDE2 inhibitory activity of a compound which may be used in accordance with the present invention may be determined by these assays.

T1 sequence (O00408 1-920 isoform O00408-2): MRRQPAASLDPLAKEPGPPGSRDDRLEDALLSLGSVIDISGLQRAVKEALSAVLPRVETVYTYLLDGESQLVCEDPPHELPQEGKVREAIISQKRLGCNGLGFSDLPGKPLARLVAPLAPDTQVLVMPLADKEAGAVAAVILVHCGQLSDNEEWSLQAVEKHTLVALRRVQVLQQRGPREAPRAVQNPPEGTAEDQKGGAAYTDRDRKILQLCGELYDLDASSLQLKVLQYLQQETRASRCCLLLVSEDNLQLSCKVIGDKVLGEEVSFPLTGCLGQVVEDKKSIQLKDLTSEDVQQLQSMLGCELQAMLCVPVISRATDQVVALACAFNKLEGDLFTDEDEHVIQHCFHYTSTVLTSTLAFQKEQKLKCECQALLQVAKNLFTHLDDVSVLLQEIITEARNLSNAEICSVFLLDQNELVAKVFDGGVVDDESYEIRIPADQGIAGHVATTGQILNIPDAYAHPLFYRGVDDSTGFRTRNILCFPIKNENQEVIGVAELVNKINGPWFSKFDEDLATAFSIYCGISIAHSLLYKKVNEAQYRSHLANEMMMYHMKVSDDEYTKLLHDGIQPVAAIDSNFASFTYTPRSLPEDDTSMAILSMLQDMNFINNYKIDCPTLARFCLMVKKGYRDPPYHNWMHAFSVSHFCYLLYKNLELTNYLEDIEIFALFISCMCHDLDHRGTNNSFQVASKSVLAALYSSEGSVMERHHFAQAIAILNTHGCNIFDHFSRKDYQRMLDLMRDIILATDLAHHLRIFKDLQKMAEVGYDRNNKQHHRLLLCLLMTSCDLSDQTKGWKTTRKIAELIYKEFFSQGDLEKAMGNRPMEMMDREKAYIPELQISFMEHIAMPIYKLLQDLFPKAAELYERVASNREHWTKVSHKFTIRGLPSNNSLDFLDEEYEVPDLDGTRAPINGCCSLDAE

`Cc1nc2c(c(C(F)F)nn2C(c2ccc(C(F)(F)F)cc2)C(C)C)c(=O)[nH]1` (single isomer, unassigned) [Example 172, (S)- or (R)-3-(Difluoromethyl)-6-methyl-1-(2-methyl-1-(4-(trifluoromethyl)phenyl)propyl)-1H-pyrazolo[3,4-d] pyrimidin-4(5H)-one]: the inhibitory constant (Ki) (in general, the equilibrium dissociation constant of an inhibitor or competing ligand from its target) was 0.31 nM.
Turning to `Cc1nc2c(c([C@H](C)CO)nn2[C@@H](C)c2ccc(C(F)(F)F)cc2)c(=O)[nH]1` (single isomer, unassigned) [Example 321], the Ki was 33 nM.
`Cc1nc2c(c(CC(C)O)nn2C(C)c2ccc(C(F)(F)F)cc2)c(=O)[nH]1` (single isomer, unassigned) [Example 245]: the Ki was determined as 72 nM.
For `CC1CCC(Cc2nc3c(c(CO)nn3C(C)c3ccc(C(F)(F)F)cc3)c(=O)[nH]2)O1` (racemic) [Example 298, 3-(Hydroxymethyl)-6-[(5-methyltetrahydrofuran-2-yl)methyl]-1-{1-[4-(trifluoromethyl)phenyl]ethyl}-1,5-dihydro-4H-pyrazolo[3,4-d]pyrimidin-4-one], the Ki came to 62 nM.
Consider `Cc1nc2c(c(CC(F)(F)F)nn2C(c2ccc(C(F)(F)F)c(F)c2)C(C)(C)C)c(=O)[nH]1` (single isomer, unassigned) [Example 61, (S)- or (R)-1-(1-(3-Fluoro-4-(trifluoromethyl)phenyl)-2,2-dimethylpropyl)-6-methyl-3-(2,2,2-trifluoroethyl)-1H-pyrazolo[3,4-d]pyrimidin-4(5H)-one], for which the inhibitory constant (Ki) turned out to be 55 nM.
For `Cc1nc2c(c(CO)nn2C(c2ccc(C(F)(F)F)c(F)c2)C2(C)CC2)c(=O)[nH]1` (single isomer, unassigned) [Example 15, (S)- or (R)-1-((3-Fluoro-4-(trifluoromethyl)phenyl)(1-methylcyclopropyl)methyl)-3-(hydroxymethyl)-6-methyl-1H-pyrazolo[3,4-d]pyrimidin-4(5H)-one], the inhibition constant (Ki) was 154 nM.
`Cc1nc2c(c(CO)nn2C(C)c2ccc(CC(F)(F)F)cc2)c(=O)[nH]1` (single isomer, unassigned) [Example 122, (R)- or (S)-3-(Hydroxymethyl)-6-methyl-1-(1-(4-(2,2,2-trifluoroethyl)phenyl)ethyl)-1H-pyrazolo[3,4-d]pyrimidin-4(5H)-one]: the inhibition constant (Ki) is 194 nM.
Turning to `Cc1nc2c(c(C(F)F)nn2C(C)c2ccc(C(F)(F)C(F)(F)F)cc2)c(=O)[nH]1` (stereo not drawn) [Example 165, 3-(Difluoromethyl)-6-methyl-1-(1-(4-(perfluoroethyl)phenyl)ethyl)-1H-pyrazolo[3,4-d]pyrimidin-4(5H)-one], the inhibition constant (Ki) is 6.3 nM.
With `COCC(c1ccc(C(F)(F)F)cc1)n1nc(C(F)F)c2c(=O)[nH]c(C)nc21` (single isomer, unassigned) [Example 173, (R)- or (S)-3-(Difluoromethyl)-1-(2-methoxy-1-(4-(trifluoromethyl)phenyl)ethyl)-6-methyl-1H-pyrazolo[3,4-d]pyrimidin-4(5H)-one], the Ki stood at 4.6 nM.
Then `Cc1nc2c(c(CO)nn2C(C)c2ccc(CC(F)(F)F)cc2)c(=O)[nH]1` (single isomer, unassigned) [Example 123, (S) or (R)-3-(Hydroxymethyl)-6-methyl-1-(1-(4-(2,2,2-trifluoroethyl)phenyl)ethyl)-1H-pyrazolo[3,4-d]pyrimidin-4(5H)-one], with 2.6 nM; and `Cc1nc2c(c(C(F)F)nn2C(C)c2ccc(OC(F)(F)F)cc2)c(=O)[nH]1` (single isomer, unassigned) [Example 178, (S)- or (R)-3-(Difluoromethyl)-6-methyl-1-(1-(4-(trifluoromethoxy)phenyl)ethyl)-1H-pyrazolo[3,4-d]pyrimidin-4(5H)-one], with 0.72 nM.
Consider `Cc1nc2c(c([C@@H](C)CO)nn2[C@@H](C)c2ccc(C(F)(F)F)cc2)c(=O)[nH]1` (single isomer, unassigned) [Example 320], for which the Ki was 1.2 nM.
